Laboratory results: patent publication US6528510B1, “HIV protease inhibitors” (Warner-Lambert Company, priority 1998, dated 2003)
Read-outs that look alike come from different tables or passages of the source.

Legend:
[1] = Cellular toxicity in uninfected CEM cells, XTT (TC50); settings: human, uninfected CEM cells (lymphocyte derived)
Protocol: (§1) Compound concentrations were 0.32, 1, 3.2, 10, 32, and 100 uM.

[2] = molecular target: T1, Recombinant HIV-1 protease (Human immunodeficiency virus type 1 group M subtype B, UniProt P04585); experiment: HIV protease assay (Ki determination, HPLC readout of substrate III cleavage); assay type: biochemical
T1 construct: Recombinant HIV-1 protease (>96% purity); purchased Bachem Bioscience, Inc. (King of Prussia, Pa.)
Protocol: Recombinant HIV-1 protease (>96% purity) and HIV protease substrate III (the undecapeptide H-His-Lys-Ala-Arg-Val-Leu-Nph-Glu-Ala-Nle-Ser-NH2, 97% purity) were purchased from Bachem Bioscience, Inc. (King of Prussia, Pa.).
The methods employed follow the procedures of Tummino, et al., Archives of Biochemistry and Biophysics, 1995;316:523). […] (total volume, […]). […] The final inhibitor concentrations used were 0 (0.1, 0.2, in some experiments), 0.5, 1, 2, 5, 10, 20, 50, and 100 μM. The solution was mixed, incubated for 5 minutes and the reaction quenched by addition of trifluoracetic acid, 2% final. The (leu-p-nitro-phe) bond of the substrate is cleaved by the enzyme and substrate arid products separated by reverse-phase HPLC. Absorbance was measured at 220 nm, peak areas determined, and percentage conversion to product used to calculate percentage control (=[% conversion (+inhibitor)/% conversion (−inhibitor)]×100).

[3] = Rat blood levels after IV dosing; assay type: in vivo; settings: plasma, rats, IV dose of 10 mg/kg; for half-life: read-out: T 1/2 (half life) (converted)
Protocol: (§2) The procedure for pharmacokinetics analysis in dogs and rats was similar. For dog studies, two dogs received a single oral 10 mg/kg dose of the HIV protease inhibitor as a solution. The protease inhibitor was dissolve in 0.1N NaOH followed by buffering or diluting with isotonic phosphate buffer or water depending on solubility. For rat studies. two male rats received a single oral 10 mg/kg gavage dose of the HIV protease inhibitor suspended in 0.5% methylcellulose. For the IV administration, the compounds were dissolved in 0.1N sodium hydroxide at a concentration of 10 mg/ml. The IV dose was given bolus. Blood samples were collected prior to dosing and at 0.25, 0.5, 1, 1.5, 2, 3, 4, 8, 12, and 24 hours postdose. Plasma samples were analyzed for the HIV protease inhibitor using a HPLC procedure. The method involved plasma protein precipitation with acetonitrile, reverse-phase chromatographic separation of the HIV protease inhibitor and internal standard, and quantitation by UV detection. Some plasma samples were concentrated by evaporation prior to injection. Pharmacokinetic parameters were determined by noncompartmental analysis of individual rat-plasma concentration-time curves using WinNonlin. Maximum concentration (Cmax) and time for these to occur (tmax) were recorded as observed. Area under concentration-time curve (AUC) values were obtained using the linear trapezoidal rule.

[4] = system: HIV infected lymphocyte derived CEM cells; experiment: Cellular infection assay in CEM cells, XTT cytopathic procedure (EC50); settings: for TI (therapeutic index, TC50/EC50): CEM cells; for EC50: Human immunodeficiency virus 1, CCRF-CEM, read-out: Antiviral Efficacy EC50
Protocol: as §1

[5] = Mouse blood levels after oral dosing; assay type: in vivo, Charles River CD-1 mice; settings: CD-1, mouse, plasma, mice, oral dose of 25 mg/kg; for Cmax: read-out: Cmax (maximum concentration reached within the plasma); for half-life: read-out: T 1/2 (half life) (converted)
Protocol: Charles River CD-1 mice were dosed with a 25 mg/kg drug solution orally by gavage. For oral dosing the compounds were dissolved in 0.1N NaOH (20% final volume) and then 0.5% methylcellulose (80% final volume) was added. Blood was drawn and pooled from 5 mice at each time point via heart puncture and was placed in a 15 mL centrifuge tube containing heparin. The plasma stored in 200 μL aliquots at −80° C. until assayed.
Plasma was thawed at room temperature and then 400 μL of acetonitrile was added to each vial and vortexed. Following centrifugation the supernatant was removed and evaporated in a nitrogen evaporator at 48° C. Residue was then resolublized in 200 μL of a 75% water/25% CH3CN solution for HPLC analysis. HPLC analysis used a Zorbax RX-C8 column (4.6×150 mm) with a 25 mM potassium phosphate buffer with 0.1% TFA, pH 3.0. Mobile phases consisted of varying percentages of two buffer mixtures: Buffer A—90% buffer, 10% CH3CN, and Buffer B—30% buffer, 70% CH3CN.
A standard curve ranging from 0.5 to 50 μg/mL was used for each drug tested. Ten times final concentration solutions of drug in water were prepared from stock solutions of 1 mg/mL drug in DMSO. The final 1:10 dilution was then done in mouse plasma obtained from mice described above.

[6] = Rat blood levels after oral dosing; assay type: in vivo; settings: male, plasma, rats, oral dose of 10 mg/kg; for Cmax: read-out: Cmax (maximum concentration reached within the plasma); for half-life: read-out: T 1/2 (half life) (converted)
Protocol: as §2

[7] = recombinant HIV-1 protease, read-out: Inhib of HIV Protease KI

| SMILES | CC50 [1] [nM] | Ki [2] [nM] | C0 [3] [µM] | half-life [3] [h] | TI (therapeutic index, TC50/EC50) [4] | EC50 [4] [nM] | Ki [2, 7] [nM] | Cmax [5] [µM] | half-life [5] [h] | Cmax [6] [µM] | half-life [6] [h] |
| --- | --- | --- | --- | --- | --- | --- | --- | --- | --- | --- | --- |
| CC(C)C1(CCc2ccccc2CO)CC(O)=C(Sc2cc3cc[nH]c3cc2C(C)(C)C)C(=O)O1 (racemic) [Example 69, 4-Hydroxy-3-(6-tert-butyl-indol-5-ylsulfanyl)-6-[2-(2-hydroxymethyl-phenyl)-ethyl]6-isopropyl-5,6-dihydropyran-2-one] | 55000 | 0.67 | 335 | 4.5 | 306 | 180 |  |  |  |  |  |
| Cc1cc(SC2=C(O)CC(CCc3ccoc3)(C(C)C)OC2=O)c(C(C)(C)C)cc1CO (stereo not shown) [Example 4, 3-(2-tert-Butyl-4-hydroxymethyl-5-methyl-phenylsulfanyl)-6-(2-furan-3-yl-ethyl)-4-hydroxy-6-isopropyl-5,6-dihydro-pyran-2-one] | 199000 |  |  |  | 199 | 1000 | 0.35 | 54 | 5.6 |  |  |
| Cc1cc(SC2=C(O)CC(CCc3ccco3)(C(C)C)OC2=O)c(C(C)(C)C)cc1CO (stereo not shown) [Example 5, 3-(2-tert-Butyl-4-hydroxymethyl-5-methyl-phenylsulfanyl)-6-(2-furan-2-yl-ethyl)-4-hydroxy-6-isopropyl-5,6-dihydro-pyran-2-one] | 190000 |  |  |  | 253 | 750 | 0.78 |  |  |  |  |
| Cc1cc(SC2=C(O)CC(CCc3ccsc3)(C(C)C)OC2=O)c(C(C)(C)C)cc1CO (stereo not shown) [Example 7, 3-(2-tert-Butyl-4-hydroxymethyl-5-methyl-phenylsulfanyl)-4-hydroxy-6-isopropyl-6-(2-thiophen-3-yl-ethyl)-5,6-dihydro-pyran-2-one] | 110000 |  |  |  | 366 | 300 | 0.17 | 40 | 3.5 |  |  |
| Cc1cc(SC2=C(O)CC(CCc3cccs3)(C(C)C)OC2=O)c(C(C)(C)C)cc1CO (stereo not shown) [Example 8, 3-(2-tert-Butyl-4-hydroxymethyl-5-methyl-phenylsulfanyl)-4-hydroxy-6-isopropyl-6-(2-thiophen-2-yl-ethyl)-5,6-dihydro-pyran-2-one] | 80500 |  |  |  | 161 | 500 | 0.35 |  |  |  |  |
| Cc1cc(SC2=C(O)CC(CCc3csc(CO)c3)(C(C)C)OC2=O)c(C(C)(C)C)cc1CO (stereo not shown) [Example 9] | 210000 |  |  |  | 117 | 1800 | 0.19 |  |  |  |  |
| Cc1cc(SC2=C(O)CC(CCc3ccsc3CO)(C(C)C)OC2=O)c(C(C)(C)C)cc1N (stereo not shown) [Example 11, 3-(4-Amino-2-tert-butyl-5-methyl-phenylsulfanyl)-4-hydroxy-6-[2-(2-hydroxymethyl-thiophen-3-yl)-ethyl]-6-isopropyl-5,6-dihydro-pyran-2-one] | 133000 |  |  |  | 458 | 290 | 0.23 |  |  |  |  |
| CC(C)[C@]1(CCc2ccccc2)CC(O)=C(Sc2cc3sc(N)nc3cc2C(C)(C)C)C(=O)O1 [Example 13, (S)-3-(2-Amino-5-tert-butyl-benzothiazol-6-ylsulfanyl)-4-hydroxy-6-isopropyl-6-phenethyl-5,6-dihydro-pyran-2-one] | 42000 |  |  |  | 152 | 280 |  |  |  | 5.1 | 8.6 |
| CC(C)c1cc2nc(N)sc2cc1SC1=C(O)C[C@@](CCc2ccccc2)(C(C)C)OC1=O [Example 14, (S)-3-(2-Amino-5-isopropyl-benzothiazol-6-ylsulfanyl)-4-hydroxy-6-isopropyl-6-phenethyl-5,6-dihydro-pyran-2-one] | 75000 |  |  |  | 30 | 2500 | 0.67 |  |  |  |  |
| CC(C)C1(CCc2ccccc2CO)CC(O)=C(Sc2sc3ccccc3c2C(C)(C)C)C(=O)O1 (stereo not shown) [Example 22, 3-(3-tert-Butyl-benzo[b]thiophen-2-yl-sulfanyl)-4-hydroxy-6-[2-(2-hydroxymethyl-phenyl)-ethyl]-6-isopropyl-5,6-dihydro-pyran-2-one] | 66000 |  |  |  | 43 | 1500 | 0.85 |  |  |  |  |
| Cc1cc(SC2=C(O)CC(CCc3nccs3)(C(C)C)OC2=O)c(C(C)(C)C)cc1CO (stereo not shown) [Example 25, 3-(2-tert-Butyl-4-hydroxymethyl-5-methyl-phenylsulfanyl)-4-hydroxy-6-isopropyl-6-(2-thiazol-2-yl-ethyl)-5,6-dihydro-pyran-2-one] | 216000 |  | 120 | 8 | 308 | 700 | 0.57 | 33 | 3.3 | 6 | 12 |
| Cc1csc(CCC2(C(C)C)CC(O)=C(Sc3cc(C)c(CO)cc3C(C)(C)C)C(=O)O2)n1 (stereo not shown) [Example 26, 3-(2-tert-Butyl-4-hydroxymethyl-5-methyl-phenylsulfanyl)-4-hydroxy-6-isopropyl-6-[2-(4-methyl-thiazol-2-yl)-ethyl]-5,6-dihydro-pyran-2-one] | 171000 |  |  |  | 213 | 800 | 0.45 |  |  |  |  |
| CC(C)c1cc2ncsc2cc1SC1=C(O)C[C@@](CCc2ccc(O)cc2)(C(C)C)OC1=O [Example 48, (S)-4-Hydroxy-6-[2-(4-hydroxy-phenyl)-ethyl]-6-isopropyl-3-(5-isopropyl-benzothiazol-6-ylsulfanyl)-5,6-dihydro-pyran-2-one] | 29000 | 0.4 |  |  | 78 | 370 |  |  |  |  |  |
| CC(C)[C@]1(CCc2ccccc2)CC(O)=C(Sc2cc3cc[nH]c3cc2C(C)(C)C)C(=O)O1 [Example 73, (S)-3-(6-tert-Butyl-1H-indol-5-yl-sulfanyl)-4-hydroxy-6-isopropyl-6-(2-phenethyl)-5,6-dihydro-pyran-2-one] | 42000 | 0.54 |  |  | 69 | 610 |  |  |  |  |  |
| CC(C)[C@]1(CCc2ccccc2)CC(O)=C(Sc2cc3sc(NS(C)(=O)=O)nc3cc2C(C)(C)C)C(=O)O1 [Example 79, (S)-N-[5-tert-Butyl-6-(4-hydroxy-6-isopropyl-2-oxo-6-phenethyl-5,6-dihydro-2H-pyran-3-ylsulfanyl)-benzothiazol-2-yl]-methanesulfonamide] | 125000 | 2.1 |  |  | 56 | 2200 |  |  |  |  |  |
| CC(C)[C@]1(CCc2cccc(F)c2)CC(O)=C(Sc2cc3sc(N)nc3cc2C(C)(C)C)C(=O)O1 [Example 83, (S)-3-(2-Amino-5-tert-butyl-benzothiazol-6-ylsulfanyl)-6-[2-(3-fluoro-phenyl)-ethyl]-4-hydroxy-6-isopropyl-5,6-dihydro-pyran-2-one] | 61000 | 0.44 | 199 | 4 | 235 | 260 |  |  |  |  |  |
